Laboratory results taken from US9989543B2, “Composition, device, and method for detecting olmesartan and improving compliance in treating hypertension” (Autotelic LLC, priority 2016, dated 2018).
Like-named read-outs stand apart in the source and are kept apart here.

What was measured:
[1] = Olmesartan blood concentration/AUC after 7-day versus single-day dosing; assay type: in vivo, Korean healthy males; conditions: for % Reduction: Compliance-7X vs Non-Compliance-1X
Protocol: Drug exposure as AUC was studied among Korean healthy males aged between 20 and 50 years in two clinical studies: (1) taking drug regularly for 7 days (subjects were administered either 1 tablet of 40 mg olmesartan medoxomil, 1 tablet of 20 mg rosuvastatin calcium, or 1 tablet each of both agents orally every 24 hours for 7 days) and (2) taking drug only one day (58 subjects divided into 2 cohorts and treated over 2 periods; one tablet of ST-101 (FDC olmesartan and rosuvastatin) tablet of 40 mg olmesartan medoxomil/20 mg rosuvastatin calcium was administered once orally as the test drug, or 1 tablet each of 40 mg olmesartan medoxomil and 20 mg rosuvastatin calcium was co-administered once orally as the comparator). Pharmacokinetic analyses were performed. For PK analyses, blood samples were collected at 0 (pre-dose), 0.5, 2, 2.5, 3, 4, 5, 6, 7, 8, 10, 12, 16, 24, and 48 hr after dosing of olmesartan either as FDC or as single agent. The results are graphically illustrated in FIG. 1. FIG. 1 compares olmesartan AUC (area-under-the-curve) for subjects taking olmesartan regularly for 7 days (Multiple Dosing ×7, solid circles) and for subjects taking olmesartan only 1 day (Single Dosing ×1, open circles): mean+/−95% confidence interval (CI) for subjects taking olmesartan regularly for 7 days. […] The differences between compliance and non-compliance across a 24 hr period were determined (see Table 1). The % reduction in blood concentration can be used to determine if the patient is missing his/her medication. […] There is about 40 ng/mL remaining at 24 hr, which accumulated to about 60 ng/mL following consistently medication for 7 days. The comparison between full compliance for 7 days versus noncompliance is tabulated below.

[2] = as above; assay type: in vivo, Korean healthy males
[3] = highest dose, olmesartan at 40 mg/day; cited from earlier work

% Reduction ([1]; Time 0 hrs): Infinity
% Reduction ([1]; Time 1 hrs): 26.84%
% Reduction ([1]; Time 2 hrs): 12.43%
% Reduction ([1]; Time 2.5 hrs): 13.33%
% Reduction ([1]; Time 3 hrs): 19.97%
% Reduction ([1]; Time 4 hrs): 19.85%
% Reduction ([1]; Time 5 hrs): 15.71%
% Reduction ([1]; Time 6 hrs): 20.17%
% Reduction ([1]; Time 8 hrs): 24.95%
% Reduction ([1]; Time 10 hrs): 30.40%
% Reduction ([1]; Time 12 hrs): 31.90%
% Reduction ([1]; Time 16 hrs): 40.22%
% Reduction ([1]; Time 24 hrs): 61.33%
concentration at 24 h ([1]; male, human, blood, oral, 40 mg, 24 hr, following consistently medication for 7 days, read-out: blood concentration remaining at 24 hr, accumulated): ~60 ng/mL
concentration at 0 h ([1]; male, human, blood, oral, 40 mg, Time 0 hrs, dosing every 24 hours for 7 days, read-out: Blood concentration (ng/mL)/Compliance-7X): 54.1 ng/mL
concentration at 1.5 h ([1]; male, human, blood, oral, 40 mg, dosing every 24 hours for 7 days, read-out: Blood concentration (ng/mL)/Compliance-7X): 1060 ng/mL
concentration at 1.5 h ([1]; male, human, blood, oral, 40 mg, drug taken only one day, read-out: Blood concentration (ng/mL)/Non-Compliance-1X): 932 ng/mL
concentration at 2 h ([1]; male, human, blood, oral, 40 mg, Time 2 hrs, dosing every 24 hours for 7 days, read-out: Blood concentration (ng/mL)/Compliance-7X): 1130 ng/mL
concentration at 2.5 h ([1]; male, human, blood, oral, 40 mg, Time 2.5 hrs, dosing every 24 hours for 7 days, read-out: Blood concentration (ng/mL)/Compliance-7X): 1110 ng/mL
concentration at 3 h ([1]; male, human, blood, oral, 40 mg, Time 3 hrs, dosing every 24 hours for 7 days, read-out: Blood concentration (ng/mL)/Compliance-7X): 1090 ng/mL
concentration at 4 h ([1]; male, human, blood, oral, 40 mg, Time 4 hrs, dosing every 24 hours for 7 days, read-out: Blood concentration (ng/mL)/Compliance-7X): 911 ng/mL
concentration at 5 h ([1]; male, human, blood, oral, 40 mg, Time 5 hrs, dosing every 24 hours for 7 days, read-out: Blood concentration (ng/mL)/Compliance-7X): 714 ng/mL
concentration at 6 h ([1]; male, human, blood, oral, 40 mg, Time 6 hrs, dosing every 24 hours for 7 days, read-out: Blood concentration (ng/mL)/Compliance-7X): 543 ng/mL
concentration at 8 h ([1]; male, human, blood, oral, 40 mg, Time 8 hrs, dosing every 24 hours for 7 days, read-out: Blood concentration (ng/mL)/Compliance-7X): 361 ng/mL
concentration at 10 h ([1]; male, human, blood, oral, 40 mg, Time 10 hrs, dosing every 24 hours for 7 days, read-out: Blood concentration (ng/mL)/Compliance-7X): 263 ng/mL
concentration at 12 h ([1]; male, human, blood, oral, 40 mg, Time 12 hrs, dosing every 24 hours for 7 days, read-out: Blood concentration (ng/mL)/Compliance-7X): 193 ng/mL
concentration at 16 h ([1]; male, human, blood, oral, 40 mg, Time 16 hrs, dosing every 24 hours for 7 days, read-out: Blood concentration (ng/mL)/Compliance-7X): 123 ng/mL
concentration at 24 h ([1]; male, human, blood, oral, 40 mg, Time 24 hrs, dosing every 24 hours for 7 days, read-out: Blood concentration (ng/mL)/Compliance-7X): 66.2 ng/mL
concentration at 24 h ([1]; male, human, blood, oral, 24 hr, before accumulation, read-out: blood concentration remaining at 24 hr): ~40 ng/mL
concentration at 0 h ([1]; male, human, blood, oral, Time 0 hrs, drug taken only one day, read-out: Blood concentration (ng/mL)/Non-Compliance-1X): 0 ng/mL
concentration at 1 h ([1]; male, human, blood, oral, Time 1 hrs, drug taken only one day, read-out: Blood concentration (ng/mL)/Non-Compliance-1X): 677 ng/mL
concentration at 2 h ([1]; male, human, blood, oral, Time 2 hrs, drug taken only one day, read-out: Blood concentration (ng/mL)/Non-Compliance-1X): 1000 ng/mL
concentration at 2.5 h ([1]; male, human, blood, oral, Time 2.5 hrs, drug taken only one day, read-out: Blood concentration (ng/mL)/Non-Compliance-1X): 976 ng/mL
concentration at 3 h ([1]; male, human, blood, oral, Time 3 hrs, drug taken only one day, read-out: Blood concentration (ng/mL)/Non-Compliance-1X): 912 ng/mL
concentration at 4 h ([1]; male, human, blood, oral, Time 4 hrs, drug taken only one day, read-out: Blood concentration (ng/mL)/Non-Compliance-1X): 760 ng/mL
concentration at 5 h ([1]; male, human, blood, oral, Time 5 hrs, drug taken only one day, read-out: Blood concentration (ng/mL)/Non-Compliance-1X): 617 ng/mL
concentration at 6 h ([1]; male, human, blood, oral, Time 6 hrs, drug taken only one day, read-out: Blood concentration (ng/mL)/Non-Compliance-1X): 452 ng/mL
concentration at 8 h ([1]; male, human, blood, oral, Time 8 hrs, drug taken only one day, read-out: Blood concentration (ng/mL)/Non-Compliance-1X): 289 ng/mL
concentration at 10 h ([1]; male, human, blood, oral, Time 10 hrs, drug taken only one day, read-out: Blood concentration (ng/mL)/Non-Compliance-1X): 202 ng/mL
concentration at 12 h ([1]; male, human, blood, oral, Time 12 hrs, drug taken only one day, read-out: Blood concentration (ng/mL)/Non-Compliance-1X): 146 ng/mL
concentration at 16 h ([1]; male, human, blood, oral, Time 16 hrs, drug taken only one day, read-out: Blood concentration (ng/mL)/Non-Compliance-1X): 87.9 ng/mL
concentration at 24 h ([1]; male, human, blood, oral, Time 24 hrs, drug taken only one day, read-out: Blood concentration (ng/mL)/Non-Compliance-1X): 41.1 ng/mL
AUC ([1]; male, human, blood, oral, population of subjects receiving olmesartan at 40 mg/day, daily administration, read-out: median AUC (target AUC)): ~7000 ng·h/mL
clearance ([1]; much of the drug gone from the system at 48 hr): rapid clearance
% Reduction ([2]; Time 1.5 hrs, Compliance-7X vs Non-Compliance-1X): 14.15%
concentration at 1 h ([2]; male, human, blood, oral, 40 mg, Time 1 hrs, dosing every 24 hours for 7 days, read-out: Blood concentration (ng/mL)/Compliance-7X): 858 ng/mL
Structure (SMILES): CCCc1nc(C(C)(C)O)c(C(=O)O)n1Cc1ccc(-c2ccccc2-c2nnn[nH]2)cc1 [olmesartan]
subjects achieving target blood pressure reduction [3]: about 50%
